According to patent publication US20070160725A1, “Use of extracts and compounds of allium-genus plants as preservatives in the food and agri-food industries” (MOUSALA, S., L., priority 2004, published 2007):

Legend:
Assay in all cases: agar diffusion, inhibition halo
Type in all cases: cell-based
[1] = tested on: Escherichia coli, CECT 515
Protocol: (§1) In order to evaluate the antimicrobial activity the agar diffusion technique with cellulose discs of 6 mm in diameter impregnated with the different active ingredient testing doses was used.
(§2) Antibacterial capacity was assessed against suspensions of 10^6 cells/ml, prepared from pure young cultures of each one of the strains to be tested. The culture medium used was Müller-Hinton medium (Merck).
(§3) After incubating the culture dishes inoculated with the different organisms at the corresponding temperatures, the microbial inhibition halos that appeared were measured, and said measurement includes the 6 mm diameter of the cellulose discs.

[2] = tested on: Bacillus cereus, CECT 1178
Protocol: as §1, §2, §3

[3] = tested on: Bacillus subtilis, isolated from paprika
Protocol: as §1, §2, §3

[4] = tested on: Listeria monocytogenes, ATCC 15313
Protocol: as §1, §2, §3

[5] = tested on: Geotrichum candidum CECT 1902
Protocol: as §1
(§4) Antifungal capacity was assessed against suspensions of […], harvested from pure cultures of the selected molds and against suspensions of 10^7 cells/ml for the case of yeasts. The culture medium used was the 2% Sabouraud-glucose medium (Merck).
as §3

[6] = tested on: Penicillium italicum CECT 2294; conditions: for zone of inhibition at 125 ppm / zone of inhibition at 250 ppm / zone of inhibition at 500 ppm / zone of inhibition at 1000 ppm: Penicillium italicum, CECT2294, read-out: inhibition halo diameter
Protocol: as §1, §4, §3

[7] = tested on: Penicillium sp, isolated from cheese
Protocol: as §1, §4, §3

[8] = tested on: Aspergillus niger, CECT 2700
Protocol: as §1, §4, §3

[9] = tested on: Aspergillus terreus, isolated from the environment of the cheese maturation chamber
Protocol: as §1, §4, §3

[10] = tested on: Candida krusei, isolated from cheese
Protocol: as §1, §4, §3

[11] = tested on: Rhizopus stolonifer CECT 2344
Protocol: as §1, §4, §3

[12] = tested on: Trichoderma aureoviride CECT 20102
Protocol: as §1, §4, §3

[13] = 1000 ppm (active ingredient, dose in ppm)
[14] = 2000 ppm (active ingredient, dose in ppm)
[15] = 4000 ppm (active ingredient, dose in ppm)
[16] = 6000 ppm (active ingredient, dose in ppm)

Compound `C=CCSSC=CC[S+]([O-])CC=C` (mixture of isomers) [Ajoene, (E)-(Z)-ajoene] has an inhibition halo diameter ([1]; 125 ppm) of 7 mm, an inhibition halo diameter ([1]; 250 ppm) of 9 mm and an inhibition halo diameter ([1]; 500 ppm) of 11 mm. For the same compound, the inhibition halo diameter ([1]; 1000 ppm) was 13 mm, the inhibition halo diameter ([2]; 125 ppm) was 18 mm and the inhibition halo diameter ([2]; 250 ppm) was 24 mm. The inhibition halo diameter ([2]; 500 ppm) was 30 mm, the inhibition halo diameter ([2]; 1000 ppm) was 36 mm and the inhibition halo diameter ([3]; 125 ppm) was 36 mm. For the same compound, the inhibition halo diameter ([3]; 250 ppm) was 40 mm, the inhibition halo diameter ([3]; 500 ppm) was 54 mm and the inhibition halo diameter ([3]; 1000 ppm) was 62 mm. It also gave an inhibition halo diameter ([4]; 125 ppm) of 16 mm, an inhibition halo diameter ([4]; 250 ppm) of 18 mm and an inhibition halo diameter ([4]; 500 ppm) of 20 mm. The inhibition halo diameter ([4]; 1000 ppm) was 30 mm, the inhibition halo diameter ([5]; 125 ppm) was 14 mm and the inhibition halo diameter ([5]; 250 ppm) was 20 mm. It also gave an inhibition halo diameter ([5]; 500 ppm) of 26 mm, an inhibition halo diameter ([5]; 1000 ppm) of 34 mm and a zone of inhibition at 125 ppm [6] of 18 mm. For the same compound, the zone of inhibition at 250 ppm [6] was 24 mm, the zone of inhibition at 500 ppm [6] was 44 mm and the zone of inhibition at 1000 ppm [6] was 50 mm. It also gave an inhibition halo diameter ([7]; 125 ppm) of 12 mm, an inhibition halo diameter ([7]; 250 ppm) of 27 mm and an inhibition halo diameter ([7]; 500 ppm) of 40 mm. For the same compound, the inhibition halo diameter ([7]; 1000 ppm) was 40 mm, the inhibition halo diameter ([8]; 125 ppm) was 11 mm and the inhibition halo diameter ([8]; 250 ppm) was 13 mm. It also gave an inhibition halo diameter ([8]; 500 ppm) of 24 mm, an inhibition halo diameter ([8]; 1000 ppm) of 27 mm and an inhibition halo diameter ([9]; 125 ppm) of 18 mm. For the same compound, the inhibition halo diameter ([9]; 250 ppm) was 21 mm, the inhibition halo diameter ([9]; 500 ppm) was 32 mm and the inhibition halo diameter ([9]; 1000 ppm) was 40 mm. It also gave an inhibition halo diameter ([10]; 125 ppm) of 26 mm, an inhibition halo diameter ([10]; 250 ppm) of 32 mm and an inhibition halo diameter ([10]; 500 ppm) of 38 mm. It also gave an inhibition halo diameter ([10]; 1000 ppm) of 42 mm.
Work on `C=CC1SC=CCS1` (stereo not shown) [2-vinyl-4H-1,3-dithiin] yielded an inhibition halo diameter ([1]; 125 ppm) of 0 mm, an inhibition halo diameter ([1]; 250 ppm) of 0 mm and an inhibition halo diameter ([1]; 500 ppm) of 0 mm. It also gave an inhibition halo diameter ([1]; 1000 ppm) of 0 mm, an inhibition halo diameter ([2]; 125 ppm) of 7 mm and an inhibition halo diameter ([2]; 250 ppm) of 9 mm. It also gave an inhibition halo diameter ([2]; 500 ppm) of 10 mm, an inhibition halo diameter ([2]; 1000 ppm) of 12 mm and an inhibition halo diameter ([3]; 125 ppm) of 7 mm. For the same compound, the inhibition halo diameter ([3]; 250 ppm) was 10 mm, the inhibition halo diameter ([3]; 500 ppm) was 13 mm and the inhibition halo diameter ([3]; 1000 ppm) was 15 mm. For the same compound, the inhibition halo diameter ([4]; 125 ppm) was 0 mm, the inhibition halo diameter ([4]; 250 ppm) was 7 mm and the inhibition halo diameter ([4]; 500 ppm) was 8 mm. The inhibition halo diameter ([4]; 1000 ppm) was 10 mm, the inhibition halo diameter ([5]; 125 ppm) was 7 mm and the inhibition halo diameter ([5]; 250 ppm) was 7 mm. For the same compound, the inhibition halo diameter ([5]; 500 ppm) was 10 mm, the inhibition halo diameter ([5]; 1000 ppm) was 15 mm and the zone of inhibition at 125 ppm [6] was 0 mm. For the same compound, the zone of inhibition at 250 ppm [6] was 0 mm, the zone of inhibition at 500 ppm [6] was 8 mm and the zone of inhibition at 1000 ppm [6] was 10 mm. The inhibition halo diameter ([7]; 125 ppm) was 0 mm, the inhibition halo diameter ([7]; 250 ppm) was 8 mm and the inhibition halo diameter ([7]; 500 ppm) was 10 mm. The inhibition halo diameter ([7]; 1000 ppm) was 12 mm, the inhibition halo diameter ([8]; 125 ppm) was 7 mm and the inhibition halo diameter ([8]; 250 ppm) was 7 mm. It also gave an inhibition halo diameter ([8]; 500 ppm) of 10 mm, an inhibition halo diameter ([8]; 1000 ppm) of 15 mm and an inhibition halo diameter ([9]; 125 ppm) of 0 mm. It also gave an inhibition halo diameter ([9]; 250 ppm) of 0 mm, an inhibition halo diameter ([9]; 500 ppm) of 6 mm and an inhibition halo diameter ([9]; 1000 ppm) of 7 mm. It also gave an inhibition halo diameter ([10]; 125 ppm) of 7 mm, an inhibition halo diameter ([10]; 250 ppm) of 10 mm and an inhibition halo diameter ([10]; 500 ppm) of 10 mm. The inhibition halo diameter ([10]; 1000 ppm) was 12 mm.
`C=CC1CC=CSS1` (stereo not shown) [3-vinyl-4H-1,2-dithiin] gave an inhibition halo diameter ([1]; 125 ppm) of 0 mm, an inhibition halo diameter ([1]; 250 ppm) of 0 mm and an inhibition halo diameter ([1]; 500 ppm) of 0 mm. For the same compound, the inhibition halo diameter ([1]; 1000 ppm) was 0 mm, the inhibition halo diameter ([2]; 125 ppm) was 7 mm and the inhibition halo diameter ([2]; 250 ppm) was 8 mm. It also gave an inhibition halo diameter ([2]; 500 ppm) of 8 mm, an inhibition halo diameter ([2]; 1000 ppm) of 10 mm and an inhibition halo diameter ([3]; 125 ppm) of 8 mm. The inhibition halo diameter ([3]; 250 ppm) was 9 mm, the inhibition halo diameter ([3]; 500 ppm) was 10 mm and the inhibition halo diameter ([3]; 1000 ppm) was 12 mm. The inhibition halo diameter ([4]; 125 ppm) was 0 mm, the inhibition halo diameter ([4]; 250 ppm) was 0 mm and the inhibition halo diameter ([4]; 500 ppm) was 0 mm. The inhibition halo diameter ([4]; 1000 ppm) was 0 mm, the inhibition halo diameter ([5]; 125 ppm) was 0 mm and the inhibition halo diameter ([5]; 250 ppm) was 0 mm. For the same compound, the inhibition halo diameter ([5]; 500 ppm) was 0 mm, the inhibition halo diameter ([5]; 1000 ppm) was 0 mm and the zone of inhibition at 125 ppm [6] was 0 mm. The zone of inhibition at 250 ppm [6] was 0 mm, the zone of inhibition at 500 ppm [6] was 0 mm and the zone of inhibition at 1000 ppm [6] was 0 mm. The inhibition halo diameter ([7]; 125 ppm) was 0 mm, the inhibition halo diameter ([7]; 250 ppm) was 6 mm and the inhibition halo diameter ([7]; 500 ppm) was 7 mm. It also gave an inhibition halo diameter ([7]; 1000 ppm) of 10 mm, an inhibition halo diameter ([8]; 125 ppm) of 0 mm and an inhibition halo diameter ([8]; 250 ppm) of 7 mm. It also gave an inhibition halo diameter ([8]; 500 ppm) of 10 mm, an inhibition halo diameter ([8]; 1000 ppm) of 14 mm and an inhibition halo diameter ([9]; 125 ppm) of 0 mm. For the same compound, the inhibition halo diameter ([9]; 250 ppm) was 0 mm, the inhibition halo diameter ([9]; 500 ppm) was 0 mm and the inhibition halo diameter ([9]; 1000 ppm) was 0 mm. It also gave an inhibition halo diameter ([10]; 125 ppm) of 0 mm, an inhibition halo diameter ([10]; 250 ppm) of 7 mm and an inhibition halo diameter ([10]; 500 ppm) of 8 mm. For the same compound, the inhibition halo diameter ([10]; 1000 ppm) was 10 mm.
Compound `[Na+].[O-]c1ccccc1-c1ccccc1` [30% Na o-phenylphenate, Na o-phenylphenate] has an inhibition halo diameter [5, 13] of 7 mm, an inhibition halo diameter [5, 14] of 30 mm and an inhibition halo diameter [5, 15] of 35 mm. It also gave an inhibition halo diameter [5, 16] of 40 mm, an inhibition halo diameter [6, 13] of 20 mm and an inhibition halo diameter [6, 14] of 30 mm. It also gave an inhibition halo diameter [6, 15] of 33 mm, an inhibition halo diameter [6, 16] of 53 mm and an inhibition halo diameter [11, 13] of 0 mm. For the same compound, the inhibition halo diameter [11, 14] was 0 mm, the inhibition halo diameter [11, 15] was 0 mm and the inhibition halo diameter [11, 16] was 0 mm. It also gave an inhibition halo diameter [12, 13] of 0 mm, an inhibition halo diameter [12, 14] of 10 mm and an inhibition halo diameter [12, 15] of 20 mm. It also gave an inhibition halo diameter [12, 16] of 35 mm.
